Reference: US12162861B2, “Dopamine D3 receptor selective antagonists/partial agonists; method of making; and use thereof” (THE UNITED STATES OF AMERICA, AS REPRESENTED BY THE …, priority 2016, dated 2024)
“Also recorded” adds a separate entry of the source.

Assays:
squirrel monkeys [1] = assay: THC priming-induced reinstatement of drug seeking in squirrel monkeys; type: in vivo, squirrel monkey (Saimiri sciureus); conditions: squirrel monkeys, 1, 3, and 10 mg/kg i.m., FIG. 9
Description: Reinstatement studies: In order to separately determine the reinstatement effects of a priming injection and drug-associated cues, we use two different extinction protocols (described below) that allow us to isolate the effects of these independent variables.
Priming-induced reinstatement: Before priming-induced reinstatement testing began, monkeys were allowed to self-administer the training dose of THC until they reached a stable baseline (5-10 sessions). In subsequent extinction sessions, lever presses led to i.v. saline infusions plus the visual cues that had been associated previously with THC. After at least two sessions of extinction, when responding had reached a low, stable level, a priming injection of THC (0.04 mg/kg i.v.) was given immediately before the next session, during which responding (FR10) continued to produce only i.v. saline injections and the discrete visual cues. […] A non-contingent i.v. injection of vehicle was also given before each extinction session as a control for the drug priming treatment.
Δ^9-tetrahydrocannabinol (THC, NIDA Drug Supply Program, Bethesda, MD, USA) was dissolved in a vehicle containing 1% Tween 80, 1% ethanol, and saline to obtain stock solution (0.4 mg/ml) and further diluted with saline. In the reinstatement tests, THC was injected i.v. (1 ml/kg) immediately before the session.

squirrel monkeys [2] = assay: THC self-administration in squirrel monkeys (FR10); type: in vivo, squirrel monkey (Saimiri sciureus); conditions: FR10, 1, 3, and 10 mg/kg i.m.
Description: Subjects: Seven adult male squirrel monkeys (Saimiri sciureus) weighing 0.8 to 1.1 kg were housed in individual cages in a temperature- and humidity-controlled room with unrestricted access to water. […] The monkeys were trained to self-administer either THC or food pellets prior to the study. Monkeys were fed (approximately two hours after the session) a daily food ration consisting of biscuits of high protein monkey diet (Lab Diet 5045, PMI Nutrition International, Richmond, Indiana). The number of biscuits (8-14) was determined for each monkey individually to maintain their body weights at a constant level throughout the study. […]
Apparatus: Experimental chambers and other apparatus used in this study were the same as previously described (Justinova et al. 2003). […] The chair contained one response lever (Med Associates., USA) mounted on a transparent front wall; each press on the lever with a force greater than 0.2 N produced an audible click and was recorded as a response. […]
Self-administration procedure: Daily one-hour experimental sessions were typically conducted from Monday through Friday with each monkey. […] Before the start of the session, catheters were flushed with 1 ml of saline and one injection was delivered (calculated to fill the dead space of the catheter which was about 0.2 ml). […]

rats = assay: Naloxone-precipitated conditioned place aversion in chronic oxycodone treated rats; type: in vivo, rat; conditions: chronic oxycodone-treated rats, 5, 15 mg/kg, 1 hour prior to naloxone, FIG. 6
Description: The place-conditioning apparatus (Med Associates, St Albans, VT) consisted of two compartments (21×28 cm^2) linked by a gray connecting area (21×12.5 cm^2); a sliding door separated each compartment from the connecting area. The two end compartments differed in wall color (black vs white), floor type (grid vs net), and illumination; preference for the end compartments was balanced by using weaker illumination in the reflective (and normally less-preferred) white compartment and stronger illumination in the non-reflective black compartment. The paradigm was further ‘balanced’ by associating the training injections with the white side in half the animals and with the black side in the remaining animals.
The CPA procedures in this study were similar to those described by others (Azar et al., 2003; Olmstead and Burns 2005; 2012). Briefly, one day before drug treatments started, rats (200-250 g) were randomly divided into 6 groups and were allowed to explore their assigned conditioning apparatus for 15 min (preconditioning). […] CPA score was calculated as animals' time spent in drug-paired minus saline-paired compartments, Oxycodone HCl and naloxone HCl were purchased from Sigma Chemical Co. (Saint Louis, MO, USA) and were dissolved in physiological saline.

[3] = Sucrose self-administration; type: in vivo; conditions: pretreatment (±)-29 15 and 25 mg/kg, (±)-19 1 and 5 mg/kg
opiate delta receptor = opiate delta receptor (Homo sapiens, UniProt P41143); assay: Binding to opiate delta receptor
opiate mu receptor = opiate mu receptor (Homo sapiens, UniProt P35372); assay: Binding to opiate mu receptor
opiate mu receptor, sequence (P35372 whole entry): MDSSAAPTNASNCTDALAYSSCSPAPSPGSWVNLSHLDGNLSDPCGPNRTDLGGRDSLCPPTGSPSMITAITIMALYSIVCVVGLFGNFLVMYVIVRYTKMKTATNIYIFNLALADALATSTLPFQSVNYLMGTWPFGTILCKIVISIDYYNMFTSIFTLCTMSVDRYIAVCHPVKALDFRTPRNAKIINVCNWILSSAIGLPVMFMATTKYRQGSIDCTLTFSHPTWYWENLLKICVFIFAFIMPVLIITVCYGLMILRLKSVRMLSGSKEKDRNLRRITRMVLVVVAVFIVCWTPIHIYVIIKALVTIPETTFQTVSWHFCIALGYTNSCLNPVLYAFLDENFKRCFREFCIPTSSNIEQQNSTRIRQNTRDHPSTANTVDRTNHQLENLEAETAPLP

opiate delta receptor, sequence (P41143 whole entry): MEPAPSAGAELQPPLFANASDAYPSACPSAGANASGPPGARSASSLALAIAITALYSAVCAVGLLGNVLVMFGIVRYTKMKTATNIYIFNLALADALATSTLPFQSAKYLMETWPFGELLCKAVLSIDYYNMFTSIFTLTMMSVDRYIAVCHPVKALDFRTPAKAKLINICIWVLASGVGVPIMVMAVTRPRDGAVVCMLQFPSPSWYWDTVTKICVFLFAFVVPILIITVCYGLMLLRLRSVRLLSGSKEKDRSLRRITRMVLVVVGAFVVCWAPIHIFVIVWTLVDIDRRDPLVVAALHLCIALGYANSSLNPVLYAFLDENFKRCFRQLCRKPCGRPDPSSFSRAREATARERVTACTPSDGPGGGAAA

With `CCc1cc(Cl)c(OC)c(N2CCN(CC(O)CCNC(=O)c3cc4ccccc4[nH]3)CC2)c1` (racemic) [Compound 29, N-(4-(4-(3-chloro-5-ethyl-2-methoxyphenyl)piperazin-1-yl)-3-hydroxybutyl)-1H-indole-2-carboxamide] the “THC-induced reinstatement to drug seeking” value (squirrel monkeys [1]) was “attenuates THC-induced reinstatement to drug seeking; also recorded: blocked THC-induced reinstatement of drug seeking”, the “THC-induced reinstatement to drug seeking” value (squirrel monkeys [1]; listed as (±)-29) was “attenuation of THC-induced reinstatement to drug seeking” and the THC self-administration (squirrel monkeys [2]; FIG. 7) was “attenuates THC self-administration; also recorded: dose-dependently blocked THC self-administration”. For the same compound, the THC self-administration (squirrel monkeys [2]; FIG. 7, listed as (±)-29) was “attenuation of THC self-administration”, the “naloxone-precipitated conditioned place aversion” value (rats) was “inhibits naloxone-precipitated conditioned place aversion; also recorded: significantly attenuated naloxone-precipitated conditioned place aversion” and the “naloxone-precipitated conditioned place aversion” value (rats; listed as (±)-29) was “inhibition of naloxone-precipitated conditioned place aversion”. For the same compound, the sucrose self-administration [3] was “no significant effects on sucrose self-administration”, the “binding to opiate delta receptor” value (opiate delta receptor) was “does not bind” and the “binding to opiate mu receptor” value (opiate mu receptor) was “does not bind”.
